How the values were obtained:
Format in all cases: functional, cell-based
HepG2 = assay: Cytotoxicity against human HepG2 cells assessed as reduction in cell viability after 24 hrs by CCK8 assay; settings: HepG2, 24 h
T98G = assay: Cytotoxicity against human T98 cells assessed as reduction in cell viability after 24 hrs by CCK8 assay
MCF7 = assay: Cytotoxicity against human MCF7 cells assessed as reduction in cell viability after 24 hrs by CCK8 assay; settings: MCF7, 24 h
RAW264.7 = assay: Anti-inflammatory activity in mouse RAW264.7 cells assessed as inhibition of LPS-induced NO production after 24 hrs by Griess reagent-based assay; settings: RAW264.7, 24 h

| IC50 (RAW264.7) [µM] | SMILES | IC50 (HepG2) [µM] | IC50 (T98G) [µM] | IC50 (MCF7) [µM] |
| --- | --- | --- | --- | --- |
| > 20 | CC(C)=CCC/C(C)=C/CC/C(C)=C/CC[C@]1(C)CCC2=C(O1)[C@@]1(C)C[C@](O)(Oc3c1occc3=O)C2=O | > 20 | > 20 | > 20 |
| > 20 | CC(C)=CCC/C(C)=C/CC/C(C)=C/CC[C@]1(C)CCC2=C(O1)[C@]1(C)C[C@@](O)(Oc3c1occc3=O)C2=O | > 20 | > 20 | > 20 |
| 8.28 | C[C@@H]1C[C@H]2[C@@H]3CCC4=CC(=O)C=C[C@]4(C)[C@@]3(F)[C@@H](O)C[C@]2(C)[C@@]1(O)C(=O)CO [DEXAMETHASONE] |  |  |  |

Reference: ChEMBL document CHEMBL4837186, “Structural Elucidation of Garcipaucinones A and B From Garcinia paucinervis Using Quantum Chemical Calculations” (J Nat Prod, 2021)
